In US6426369B1, “Oxethazaine as antimicrobial agent” (Eisai Co., Ltd., priority 1997, dated 2002):

Test system: H. pylori
Assay: Antimicrobial activity test 6: oxethazaine in combination with an antibiotic (AMPC, CAM, RXM), checker board method
Assay type: cell-based, Helicobacter pylori
Design: key to growth of H. pylori: “−” indicates the inhibited growth of H. pylori (presence of antimicrobial activity); “+” indicates the growth of H. pylori (absence of antimicrobial activity)
From the text: The effect of combined use with amoxicillin (AMPC), clarithromycin (CAM) or roxithromycin (RXM) was examined in the same manner as in antimicrobial activity test 1, using the checker board method.

[1] = combined use with oxethazaine, out of 15 strains (AMPC), 21 strains (CAM), 22 strains (RXM)

CC[C@H]1OC(=O)[C@H](C)[C@@H](O[C@H]2C[C@@](C)(OC)[C@@H](O)[C@H](C)O2)[C@H](C)[C@@H](O[C@@H]2O[C@H](C)C[C@H](N(C)C)[C@H]2O)[C@](C)(OC)C[C@@H](C)C(=O)[C@H](C)[C@@H](O)[C@]1(C)O [clarithromycin]
5 strains/: synergism, number of strains [1]
+: growth of H. pylori (89-355, oxethazaine 0 + CAM 0.006 μg/ml) | growth of H. pylori (89-355, oxethazaine 0 + CAM 0.012 μg/ml) | growth of H. pylori (89-355, oxethazaine 0 + CAM 0.024 μg/ml) | growth of H. pylori (89-355, oxethazaine 0 + CAM 0.05 μg/ml) | growth of H. pylori (89-357, oxethazaine 0 + CAM 0.006 μg/ml) | growth of H. pylori (89-357, oxethazaine 0 + CAM 0.012 μg/ml) | growth of H. pylori (89-357, oxethazaine 0 + CAM 0.024 μg/ml) | growth of H. pylori (90-388, oxethazaine 0 + CAM 0.006 μg/ml) | growth of H. pylori (90-388, oxethazaine 0 + CAM 0.012 μg/ml) | growth of H. pylori (90-388, oxethazaine 0 + CAM 0.024 μg/ml) | growth of H. pylori (90-388, oxethazaine 0 + CAM 0.05 μg/ml) | growth of H. pylori (90-390, oxethazaine 0 + CAM 0.006 μg/ml) | growth of H. pylori (90-390, oxethazaine 0 + CAM 0.012 μg/ml) | growth of H. pylori (90-390, oxethazaine 0 + CAM 0.024 μg/ml) | growth of H. pylori (90-390, oxethazaine 0 + CAM 0.05 μg/ml) | growth of H. pylori (EH 12, oxethazaine 0 + CAM 0.006 μg/ml) | growth of H. pylori (EH 12, oxethazaine 0 + CAM 0.012 μg/ml) | growth of H. pylori (EH 12, oxethazaine 0 + CAM 0.024 μg/ml) | growth of H. pylori (EH 13, oxethazaine 0 + CAM 0.006 μg/ml) | growth of H. pylori (EH 13, oxethazaine 0 + CAM 0.012 μg/ml) | growth of H. pylori (strain 90-397, CAM 0.006 μg/ml, oxethazaine μg/ml: 100, 50, 25, 12.5, 6.25, 3.13, 0) | growth of H. pylori (strain 90-397, CAM 0.012 μg/ml, oxethazaine μg/ml: 100, 50, 25, 12.5, 6.25, 3.13, 0) | growth of H. pylori (strain 90-397, CAM 0.024 μg/ml, oxethazaine μg/ml: 100, 50, 25, 12.5, 6.25, 3.13, 0) | growth of H. pylori (strain 90-397, CAM 0.05 μg/ml, oxethazaine μg/ml: 100, 50, 25, 12.5, 6.25, 3.13, 0) | growth of H. pylori (strain 90-397, CAM 0.1 μg/ml, oxethazaine μg/ml: 100, 50, 25, 12.5, 6.25, 3.13, 0) | growth of H. pylori (strain 90-397, CAM 0.2 μg/ml, oxethazaine μg/ml: 100, 50, 25, 12.5, 6.25, 3.13, 0)
17 strains/: additive effect, number of strains [1]
−: growth of H. pylori (89-355, oxethazaine 0 + CAM 0.1 μg/ml) | growth of H. pylori (89-355, oxethazaine 0 + CAM 0.2 μg/ml) | growth of H. pylori (89-355, oxethazaine 0 + CAM 0.4 μg/ml) | growth of H. pylori (89-355, oxethazaine 0 + CAM 0.8 μg/ml) | growth of H. pylori (89-355, oxethazaine 0 + CAM 1.56 μg/ml) | growth of H. pylori (89-355, oxethazaine 0 + CAM 3.13 μg/ml) | growth of H. pylori (89-355, oxethazaine 0 + CAM 6.25 μg/ml) | growth of H. pylori (89-355, oxethazaine 0 + CAM 12.5 μg/ml) | growth of H. pylori (89-355, oxethazaine 0 + CAM 25 μg/ml) | growth of H. pylori (89-355, oxethazaine 0 + CAM 50 μg/ml) | growth of H. pylori (89-355, oxethazaine 0 + CAM 100 μg/ml) | growth of H. pylori (89-357, oxethazaine 0 + CAM 0.05 μg/ml) | growth of H. pylori (89-357, oxethazaine 0 + CAM 0.1 μg/ml) | growth of H. pylori (89-357, oxethazaine 0 + CAM 0.2 μg/ml) | growth of H. pylori (89-357, oxethazaine 0 + CAM 0.4 μg/ml) | growth of H. pylori (89-357, oxethazaine 0 + CAM 0.8 μg/ml) | growth of H. pylori (89-357, oxethazaine 0 + CAM 1.56 μg/ml) | growth of H. pylori (89-357, oxethazaine 0 + CAM 3.13 μg/ml) | growth of H. pylori (89-357, oxethazaine 0 + CAM 6.25 μg/ml) | growth of H. pylori (89-357, oxethazaine 0 + CAM 12.5 μg/ml) | growth of H. pylori (89-357, oxethazaine 0 + CAM 25 μg/ml) | growth of H. pylori (89-357, oxethazaine 0 + CAM 50 μg/ml) | growth of H. pylori (89-357, oxethazaine 0 + CAM 100 μg/ml) | growth of H. pylori (90-388, oxethazaine 0 + CAM 0.1 μg/ml) | growth of H. pylori (90-388, oxethazaine 0 + CAM 0.2 μg/ml) | growth of H. pylori (90-388, oxethazaine 0 + CAM 0.4 μg/ml) | growth of H. pylori (90-388, oxethazaine 0 + CAM 0.8 μg/ml) | growth of H. pylori (90-388, oxethazaine 0 + CAM 1.56 μg/ml) | growth of H. pylori (90-388, oxethazaine 0 + CAM 3.13 μg/ml) | growth of H. pylori (90-388, oxethazaine 0 + CAM 6.25 μg/ml) | growth of H. pylori (90-388, oxethazaine 0 + CAM 12.5 μg/ml) | growth of H. pylori (90-388, oxethazaine 0 + CAM 25 μg/ml) | growth of H. pylori (90-388, oxethazaine 0 + CAM 50 μg/ml) | growth of H. pylori (90-388, oxethazaine 0 + CAM 100 μg/ml) | growth of H. pylori (90-390, oxethazaine 0 + CAM 0.1 μg/ml) | growth of H. pylori (90-390, oxethazaine 0 + CAM 0.2 μg/ml) | growth of H. pylori (90-390, oxethazaine 0 + CAM 0.4 μg/ml) | growth of H. pylori (90-390, oxethazaine 0 + CAM 0.8 μg/ml) | growth of H. pylori (90-390, oxethazaine 0 + CAM 1.56 μg/ml) | growth of H. pylori (90-390, oxethazaine 0 + CAM 3.13 μg/ml) | growth of H. pylori (90-390, oxethazaine 0 + CAM 6.25 μg/ml) | growth of H. pylori (90-390, oxethazaine 0 + CAM 12.5 μg/ml) | growth of H. pylori (90-390, oxethazaine 0 + CAM 25 μg/ml) | growth of H. pylori (90-390, oxethazaine 0 + CAM 50 μg/ml) | growth of H. pylori (90-390, oxethazaine 0 + CAM 100 μg/ml) | growth of H. pylori (EH 12, oxethazaine 0 + CAM 0.05 μg/ml) | growth of H. pylori (EH 12, oxethazaine 0 + CAM 0.1 μg/ml) | growth of H. pylori (EH 12, oxethazaine 0 + CAM 0.2 μg/ml) | growth of H. pylori (EH 12, oxethazaine 0 + CAM 0.4 μg/ml) | growth of H. pylori (EH 12, oxethazaine 0 + CAM 0.8 μg/ml) | growth of H. pylori (EH 12, oxethazaine 0 + CAM 1.56 μg/ml) | growth of H. pylori (EH 12, oxethazaine 0 + CAM 3.13 μg/ml) | growth of H. pylori (EH 12, oxethazaine 0 + CAM 6.25 μg/ml) | growth of H. pylori (EH 12, oxethazaine 0 + CAM 12.5 μg/ml) | growth of H. pylori (EH 12, oxethazaine 0 + CAM 25 μg/ml) | growth of H. pylori (EH 12, oxethazaine 0 + CAM 50 μg/ml) | growth of H. pylori (EH 12, oxethazaine 0 + CAM 100 μg/ml) | growth of H. pylori (EH 13, oxethazaine 0 + CAM 0.024 μg/ml) | growth of H. pylori (EH 13, oxethazaine 0 + CAM 0.05 μg/ml) | growth of H. pylori (EH 13, oxethazaine 0 + CAM 0.1 μg/ml) | growth of H. pylori (EH 13, oxethazaine 0 + CAM 0.2 μg/ml) | growth of H. pylori (EH 13, oxethazaine 0 + CAM 0.4 μg/ml) | growth of H. pylori (EH 13, oxethazaine 0 + CAM 0.8 μg/ml) | growth of H. pylori (EH 13, oxethazaine 0 + CAM 1.56 μg/ml) | growth of H. pylori (EH 13, oxethazaine 0 + CAM 3.13 μg/ml) | growth of H. pylori (EH 13, oxethazaine 0 + CAM 6.25 μg/ml) | growth of H. pylori (EH 13, oxethazaine 0 + CAM 12.5 μg/ml) | growth of H. pylori (EH 13, oxethazaine 0 + CAM 25 μg/ml) | growth of H. pylori (EH 13, oxethazaine 0 + CAM 50 μg/ml) | growth of H. pylori (EH 13, oxethazaine 0 + CAM 100 μg/ml) | growth of H. pylori (strain 90-397, CAM 12.5 μg/ml, oxethazaine μg/ml: 100, 50, 25, 12.5, 6.25, 3.13, 0) | growth of H. pylori (strain 90-397, CAM 25 μg/ml, oxethazaine μg/ml: 100, 50, 25, 12.5, 6.25, 3.13, 0) | growth of H. pylori (strain 90-397, CAM 50 μg/ml, oxethazaine μg/ml: 100, 50, 25, 12.5, 6.25, 3.13, 0) | growth of H. pylori (strain 90-397, CAM 100 μg/ml, oxethazaine μg/ml: 100, 50, 25, 12.5, 6.25, 3.13, 0)
